ChEMBL document CHEMBL1201862, “PubChem BioAssay data set” (2004)
Activity calls are given as the source filed them.

Legend:
[1] = biological target: T1, Heat shock factor protein 1 (Mus musculus, UniProt P38532); assay: decrease of HSF1-responsive luciferase luminescence – cell-based, NIH3T3, dose retest, confirmation (AID 2382); assay type: functional;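 further: NIH3T3 fibroblasts with HSF1-driven luciferase reporter stressed by proteasome inhibitor MG132; luminescence from HSF1-driven luciferase expression after 8 hours of MG132 stress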
T1 sequence (P38532 whole entry): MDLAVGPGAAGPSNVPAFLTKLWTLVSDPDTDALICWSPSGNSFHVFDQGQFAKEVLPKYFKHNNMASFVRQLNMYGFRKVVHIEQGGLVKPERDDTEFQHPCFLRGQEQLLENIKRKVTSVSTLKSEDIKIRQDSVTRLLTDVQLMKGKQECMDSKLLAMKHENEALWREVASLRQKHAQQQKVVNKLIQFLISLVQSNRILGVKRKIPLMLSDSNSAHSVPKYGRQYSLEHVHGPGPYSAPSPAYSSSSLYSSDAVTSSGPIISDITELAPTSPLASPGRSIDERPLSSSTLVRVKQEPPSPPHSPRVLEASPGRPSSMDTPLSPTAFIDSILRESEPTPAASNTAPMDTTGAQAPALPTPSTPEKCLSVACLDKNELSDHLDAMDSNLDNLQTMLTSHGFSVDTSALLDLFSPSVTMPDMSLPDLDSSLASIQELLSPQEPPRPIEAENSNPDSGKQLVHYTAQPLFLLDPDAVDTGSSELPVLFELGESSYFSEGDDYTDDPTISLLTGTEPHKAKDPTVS

[2] = Luminescence Cell-Based Dose Confirmation HTS to Identify Activators of 5'UTR Stem-Loop Driven Alpha-Synuclein mRNA Translation in H4 Neuroglioblastoma Cells. [Related pubchem assays: 1829 (Project Summary), 1814 (Primary HTS)]; assay type: functional
[3] = Luminescence Cell-Based Dose Response HTS to Identify Activators of Luciferase Translation or Activity in H4 […] Cells. [Related pubchem assays: 1829 (Project Summary), 1814 (Primary HTS)]; assay type: functional
H4 = assay: Luminescence Cell-Based Dose Response HTS to Identify Activators of 5'UTR Stem-Loop Driven Prion Protein mRNA Translation in H4 Neuroglioblastoma Cells. [Related pubchem assays: 1829 (Project Summary), 1814 (Primary HTS)]; assay type: functional; conditions: Homo sapiens
[4] = Luminescence Cell-Based Dose Retest to Confirm Inhibitors of Cancer Stem Cells. [Related pubchem assays (depositor defined):AID2717, AID2721]; assay type: functional; conditions: Homo sapiens
Cytochrome P450 2C9 = Cytochrome P450 2C9 (Homo sapiens, UniProt P11712)
Sequence of Cytochrome P450 2C9 (P11712 whole entry): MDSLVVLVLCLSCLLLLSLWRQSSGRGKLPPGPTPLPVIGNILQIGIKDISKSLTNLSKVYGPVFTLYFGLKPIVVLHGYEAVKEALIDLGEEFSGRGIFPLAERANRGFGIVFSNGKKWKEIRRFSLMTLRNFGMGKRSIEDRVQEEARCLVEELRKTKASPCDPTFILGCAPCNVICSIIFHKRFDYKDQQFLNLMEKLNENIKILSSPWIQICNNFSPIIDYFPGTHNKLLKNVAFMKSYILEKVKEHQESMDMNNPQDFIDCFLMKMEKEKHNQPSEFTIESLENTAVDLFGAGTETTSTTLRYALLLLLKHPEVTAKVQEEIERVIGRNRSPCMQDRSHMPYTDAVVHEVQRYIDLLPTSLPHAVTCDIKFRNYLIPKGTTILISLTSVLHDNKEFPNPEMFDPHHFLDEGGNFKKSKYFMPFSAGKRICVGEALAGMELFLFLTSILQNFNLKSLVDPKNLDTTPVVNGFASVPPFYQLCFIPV

Cytochrome P450 2C19 = Cytochrome P450 2C19 (Homo sapiens, UniProt P33261); assay: Cytochrome panel assay with activity outcomes. Panel member name: p450-cyp2c19 Compounds with AC50 equal or less than 10 uM are considered active; assay type: functional; conditions: read-out: AC50
Sequence of Cytochrome P450 2C19 (P33261 whole entry): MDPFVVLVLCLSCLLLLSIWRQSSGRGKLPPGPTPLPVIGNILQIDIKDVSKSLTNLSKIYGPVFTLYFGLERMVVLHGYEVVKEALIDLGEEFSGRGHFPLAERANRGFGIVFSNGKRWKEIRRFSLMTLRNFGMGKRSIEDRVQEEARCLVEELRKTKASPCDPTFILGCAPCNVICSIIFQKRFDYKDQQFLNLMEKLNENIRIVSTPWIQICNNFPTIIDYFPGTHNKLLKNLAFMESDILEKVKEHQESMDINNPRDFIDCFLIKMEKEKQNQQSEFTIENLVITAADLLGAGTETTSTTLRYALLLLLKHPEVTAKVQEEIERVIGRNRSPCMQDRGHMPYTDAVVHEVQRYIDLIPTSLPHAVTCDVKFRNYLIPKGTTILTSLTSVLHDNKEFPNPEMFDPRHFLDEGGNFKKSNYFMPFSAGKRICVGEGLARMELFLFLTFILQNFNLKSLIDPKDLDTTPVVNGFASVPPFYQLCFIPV

[5] = Trypanosoma cruzi growth suppression in host cells – NIH3T3 host cells, beta-gal luminescence, confirmation (AID 2044); assay type: functional, cell-based;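 further: intracellular parasites grown in NIH/3T3 mouse fibroblasts as host cells; luminescent beta-galactosidase reporter signal from transgenic T. cruzi replicating inside host cells; inhibitors lower the luminescence signal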
[6] = NIH3T3 cell viability loss – ATP luminescence, mouse fibroblasts, counter-screen, dose response (AID 2010); assay type: functional, cell-based;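 further: cells exposed to compound for about 90 hours before reading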
[7] = biological target: Polyadenylate-binding protein 1 (Homo sapiens, UniProt P11940); assay: MLLE domain peptide-binding blockers, IC50 – biochemical, fluorescence polarization, FITC-PAM2 peptide, dose response (AID 602259); assay type: functional; conditions: read-out: IC50_Mean
Sequence of Polyadenylate-binding protein 1 (P11940 whole entry, the tested form may be a part): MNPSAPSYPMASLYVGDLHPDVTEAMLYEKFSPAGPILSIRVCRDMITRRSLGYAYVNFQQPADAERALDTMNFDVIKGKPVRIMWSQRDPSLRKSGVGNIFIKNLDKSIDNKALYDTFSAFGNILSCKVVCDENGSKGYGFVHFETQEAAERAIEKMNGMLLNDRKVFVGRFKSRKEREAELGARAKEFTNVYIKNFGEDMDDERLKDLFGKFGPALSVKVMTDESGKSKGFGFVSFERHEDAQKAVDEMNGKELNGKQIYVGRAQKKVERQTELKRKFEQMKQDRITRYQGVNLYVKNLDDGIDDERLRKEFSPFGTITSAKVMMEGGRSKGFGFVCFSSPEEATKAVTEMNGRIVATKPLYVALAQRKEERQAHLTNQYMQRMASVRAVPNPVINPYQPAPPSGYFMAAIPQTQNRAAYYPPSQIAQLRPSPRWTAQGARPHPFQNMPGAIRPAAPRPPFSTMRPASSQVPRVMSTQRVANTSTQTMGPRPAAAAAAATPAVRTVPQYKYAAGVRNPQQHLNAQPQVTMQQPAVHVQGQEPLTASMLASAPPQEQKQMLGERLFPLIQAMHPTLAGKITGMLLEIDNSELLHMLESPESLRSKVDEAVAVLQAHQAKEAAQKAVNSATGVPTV

Cytochrome P450 1A2 = biological target: T2, Cytochrome P450 1A2 (Homo sapiens, UniProt P05177);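 further: PubChem cytochrome P450 panel assay, CYP1A2 panel member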
T2 sequence (P05177 whole entry): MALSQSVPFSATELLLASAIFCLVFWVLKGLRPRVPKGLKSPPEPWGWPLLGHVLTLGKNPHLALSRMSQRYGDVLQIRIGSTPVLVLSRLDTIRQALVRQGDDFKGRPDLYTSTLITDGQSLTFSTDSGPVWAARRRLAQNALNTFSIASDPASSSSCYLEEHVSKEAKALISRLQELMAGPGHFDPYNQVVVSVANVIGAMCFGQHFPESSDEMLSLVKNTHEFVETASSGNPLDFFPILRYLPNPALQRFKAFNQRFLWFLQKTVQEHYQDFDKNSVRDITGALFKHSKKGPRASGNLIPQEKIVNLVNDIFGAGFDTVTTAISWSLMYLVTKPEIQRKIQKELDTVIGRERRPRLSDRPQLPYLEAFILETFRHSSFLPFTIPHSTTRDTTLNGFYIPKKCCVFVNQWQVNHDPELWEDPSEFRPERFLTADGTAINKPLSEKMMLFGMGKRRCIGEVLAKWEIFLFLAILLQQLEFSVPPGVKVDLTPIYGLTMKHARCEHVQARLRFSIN

[8] = test system: Streptococcus sp. 'group A'; assay: Streptococcus pyogenes SK(-)GAS viability under kanamycin – luminescence, BacTiterGlo, confirmation, counter-screen for streptokinase expression inhibitor project, dose response (AID 1900); assay type: functional, organism-based
Streptococcus = assay: GAS UMAA2166 growth inhibition – luminescence, BacTiterGlo, counter-screen for streptokinase expression inhibitor project, dose response (AID 1915); assay type: functional, organism-based;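 further: potency for reduction of bacterial viability or growth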
Streptokinase A = biological target: T3, Streptokinase A (Streptococcus pyogenes serotype M1, UniProt P10520); assay: viability-normalized secreted streptokinase activity reduction – plasminogen activation absorbance, OD405, dose response (AID 1914); assay type: functional, Streptococcus pyogenes M1 GAS;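 further: secreted streptokinase activity via plasminogen activation per viability signal from cell pellet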
T3 sequence (P10520 whole entry): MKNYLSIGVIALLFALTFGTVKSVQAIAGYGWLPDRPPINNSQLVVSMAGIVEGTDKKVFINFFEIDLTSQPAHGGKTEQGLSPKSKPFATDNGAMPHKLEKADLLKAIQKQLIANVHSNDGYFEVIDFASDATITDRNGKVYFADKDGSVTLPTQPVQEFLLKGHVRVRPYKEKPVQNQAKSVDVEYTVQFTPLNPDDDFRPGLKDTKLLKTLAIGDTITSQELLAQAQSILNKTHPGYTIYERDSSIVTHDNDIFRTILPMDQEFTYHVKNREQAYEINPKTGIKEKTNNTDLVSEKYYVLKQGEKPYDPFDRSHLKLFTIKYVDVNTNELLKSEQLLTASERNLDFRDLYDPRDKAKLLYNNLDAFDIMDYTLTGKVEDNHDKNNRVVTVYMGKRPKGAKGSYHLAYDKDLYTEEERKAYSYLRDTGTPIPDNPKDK

## COc1ccc(-n2c(S)nnc2COc2cccc(C)c2)cc1
[1]
  EC50: > 195 µM (not active)

## C=CCNc1nnnc2c1sc1nc(N3CCOCC3)c3c(c12)CCCC3
[1]
  EC50: > 195 µM (not active)

## Cc1ccc(N2CCN(C(=O)c3cn(CC4CCCCC4)nn3)C(C)C2)cc1 (stereo not drawn)
[2]
  EC50: 2.49 µM (active)
[3]
  EC50: 0.418 µM (active)

## O=C1C(Cl)=C(NCC2CCCO2)C(=O)N1CCc1ccccc1 (stereo not drawn)
H4
  EC50: 13.1 µM (active)
[2]
  EC50: 12.9 µM (active)
[3]
  EC50: 15.4 µM (active)

## COc1cc(SC)ccc1C(=O)OCC(=O)NC1CCCC1
[1]
  EC50: > 195 µM (not active)

## CCCOc1ccc(/C=N/Nc2cccc([N+](=O)[O-])c2)c(O)c1
[4]
  AC50: 1.76 µM (active)

## CCn1ccc(C(=O)NC2=C(C#N)CCC2)n1
Cytochrome P450 2C9
  AC50: 14.1 µM (inconclusive)

## CCOC(=O)C1=C(O)C(Nc2nccs2)(C(F)(F)F)N=C1C (stereo not drawn)
Cytochrome P450 2C9
  AC50: 35.5 µM (inconclusive)

## COc1ccc(/C=N/Nc2nc(C)cc(O)n2)cc1OC
[1]
  EC50: 29.8 µM (active)

## NNC(=O)CNC(=O)CNS(=O)(=O)c1ccccc1
[1]
  EC50: > 195 µM (not active)

## CN(C)C(=O)c1ccc(-c2nc(Nc3ccncc3)c3ccccc3n2)cc1
Cytochrome P450 2C19
  AC50: 39.8 µM (inconclusive)

## FC(F)(F)c1cc(-c2ccc(Cl)cc2)nc(NCc2cccnc2)n1
[5]
  EC50: 1.01 µM (active)
[6]
  EC50: > 60 µM (not active)
[4]
  AC50: 7.33 µM (active)

## COc1ccc(-n2c(=O)c(C)nc3cncnc32)cc1
Cytochrome P450 2C9
  AC50: 39.8 µM (inconclusive)

## COC(=O)c1cc(/C=C/c2ccccc2)[nH]n1
H4
  EC50: 18.1 µM (active)
[2]
  EC50: 25.4 µM (active)
[3]
  EC50: 6.84 µM (active)

## CCOC(=O)c1ccc(N[S+]([O-])C23CC4CC(CC(C4)C2)C3)cc1 (stereo not drawn)
H4
  EC50: > 120 µM (not active)
[2]
  EC50: > 120 µM (not active)
[3]
  EC50: > 120 µM (not active)

## O=c1c(Cl)c(NCc2ccccc2)cnn1C12CC3CC(CC(C3)C1)C2
[4]
  AC50: 1.16 µM (active)

## O=C(c1cnsn1)N1CCC(CO)(Cc2cccc(F)c2)CC1
H4
  EC50: 75.8 µM (active)
[2]
  EC50: 14.8 µM (active)
[3]
  EC50: 15.2 µM (active)

## COc1ccc(NC(=O)Nc2ccc([N+](=O)[O-])cc2)cn1
[7]
  IC50: 42.1 µM (inactive)

## COC(=O)[C@@H]1C[C@H]1[C@@H](NC(=O)c1ccccc1)c1ccccc1
Cytochrome P450 2C9
  AC50: 39.8 µM (inconclusive)

## COc1ccc(-n2c(=O)c(-c3cc(F)cc(F)c3)nc3cncnc32)cc1
Cytochrome P450 2C19
  AC50: 10 µM (inconclusive)

## COCCNC(=O)CN(C(=O)CCC(=O)Nc1ccccn1)c1ccc(C)cc1
[4]
  AC50: > 195 µM (inactive)

## C[C@](N)(COP(=O)(O)O)C(=O)O
Cytochrome P450 1A2
  AC50: 31.6 µM (inconclusive)
Cytochrome P450 2C19
  AC50: 25.1 µM (inconclusive)

## Cc1ccc(C2N(c3ccccc3)C(=S)N3CCCN23)cc1 (stereo not drawn)
[1]
  EC50: > 195 µM (not active)

## COc1ccc(NC(=O)N2CCCC3(CCN(C(=O)Oc4ccccc4)CC3)C2)cc1
Cytochrome P450 2C9
  AC50: 1.58 µM (inconclusive)

## O=S(=O)(Nc1ccc(-c2nnc(SCc3ccc(Cl)cc3)o2)cc1)c1ccccc1
[4]
  AC50: 3.31 µM (active)

## Cc1ccc(C)c(-c2csc(N)c2C(=O)OC(C)C)c1
[8]
  EC50: 9.04 µM (active)
Streptococcus
  EC50: > 150 µM (not active)
Streptokinase A
  EC50: 17 µM (active)
[4]
  AC50: 6.66 µM (active)

## CN1CCc2ccccc2[C@@H]1Cc1ccccc1NC(=O)c1sc2ccccc2c1Cl
Cytochrome P450 1A2
  AC50: 5.01 µM (inconclusive)
Cytochrome P450 2C9
  AC50: 3.16 µM (inconclusive)

## O=C1NCCN1Cc1cccc(Cl)c1
Cytochrome P450 2C19
  AC50: 2.24 µM (inconclusive)
Cytochrome P450 2C9
  AC50: 2.24 µM (inconclusive)

## CC(C)(C)c1ccc(Cn2nnc3c(O)nc(C4CCCN(C(=O)c5cccs5)C4)nc32)cc1 (stereo not drawn)
[4]
  AC50: 10.6 µM (active)

## COc1cc(O)c2c(O)c3c(c4c2c1[C@@]1(C4)C(C)=CCCC1(C)C)[C@H](O)[C@@]1(O)CC(O)=C(C(N)=O)C(=O)[C@]1(O)C3=O
Cytochrome P450 1A2
  AC50: 3.16 µM (inconclusive)
Cytochrome P450 2C9
  AC50: 3.16 µM (inconclusive)

## Cc1cc(NC(=O)c2ccc3nc(C)sc3c2)no1
[1]
  EC50: 0.167 µM (active)

## CC(=O)c1ccc(-n2nnnc2SCC(=O)Nc2cccc(NC(=O)c3ccco3)c2)cc1
Cytochrome P450 2C9
  AC50: 7.08 µM (inconclusive)

## CCOC(=O)C1(S(=O)(=O)c2ccccc2)CCN(Cc2ccccc2)CC1
Cytochrome P450 2C9
  AC50: 11.2 µM (inconclusive)

## CC(C)Sc1nc2sccc2c(=O)n1-c1ccccc1
[1]
  EC50: > 195 µM (not active)

## Cc1ccc(C2=NCCn3c2c2ccc(C(F)(F)F)cc2[n+]3[O-])cc1
[1]
  EC50: > 195 µM (not active)

## CC(=O)NC1=NN(C(C)=O)C(c2ccccn2)S1 (stereo not drawn)
[1]
  EC50: > 195 µM (not active)

## COC(=O)c1c(NC(=O)c2ccc(C)c(S(=O)(=O)Nc3ccccc3C)c2)sc2c1CCCC2
[4]
  AC50: 0.875 µM (active)

## CCN1CCN(c2cc3c(nn2)Oc2ccccc2N3C)CC1
H4
  EC50: 0.573 µM (active)
[2]
  EC50: 11.4 µM (active)
[3]
  EC50: 44.6 µM (active)

## CCOc1c2ccc(C(=O)NCCc3cccs3)cc2nn1CC
H4
  EC50: > 120 µM (not active)
Cytochrome P450 2C19
  AC50: 4.47 µM (inconclusive)
[3]
  EC50: 1.51 µM (active)
Cytochrome P450 2C9
  AC50: 28.2 µM (inconclusive)

## O=C(Cc1ccccc1F)Nc1ccc(S(=O)(=O)N2CCCCC2)cc1
[1]
  EC50: > 195 µM (not active)

## C=CCn1c(CCCNC(=O)C(C)(C)C)nc2ccccc21
[1]
  EC50: > 195 µM (not active)

## O=C(c1ccccn1)c1cc2ccccc2n1S(=O)(=O)c1ccccc1
[2]
  EC50: 20.5 µM (active)
[3]
  EC50: 55.9 µM (active)

## O=S(=O)(c1ccccc1)c1c[nH]c(O)n1
[1]
  EC50: > 195 µM (not active)

## Cc1cccc(-c2nnc(SCc3ccccc3)o2)c1
Cytochrome P450 2C9
  AC50: 39.8 µM (inconclusive)
